Measured values as given in US20230085307A1, “PYRIDAZINONE COMPOUND AND HERBICIDE” (NISSAN CHEMICAL CORPORATION, priority 2019, published 2023).

test system: late watergrass; experiment: Test Example 2: herbicidal activity, application during weed generation under submerged conditions (Table 17, symbol A); assay type: in vivo, late watergrass (Echinochloa oryzicola); conditions: AAH 320 g/ha; application during weed generation, submerged conditions
Method in brief: (§1)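 Alluvial soil in Wagner pots was flooded to 4 cm depth and sown with the three weeds together; pots were kept in a greenhouse at 25° C. to 30° C. At the one to two leaf stage, an emulsion formulation diluted in water to a set rate went onto the water surface; scored three weeks later.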

Row | Compound | herbicidal effect rating, A: late watergrass
1 | COCCOCOc1c(C)nn(C)c(=O)c1-c1c(-c2ccc(OCCSC)cc2)sc2ccccc12 [1-221] | 5 (Herbicidal rate of 90% or more (almost completely withered))
2 | CCCC(=O)Oc1c(C)nn(C)c(=O)c1-c1c(-c2ccc(COC)cc2)sc2ccc(F)cc12 [2-023] | 3 (Herbicidal rate of 40% or more and less than 70%)

test system: Japanese bulrush; experiment: Test Example 2: herbicidal activity, application during weed generation under submerged conditions (Table 17, symbol B); assay type: in vivo, Japanese bulrush (Schoenoplectus juncoides); conditions: AAH 320 g/ha; application during weed generation, submerged conditions
Method in brief: as §1

Row | Compound | herbicidal effect rating, B: Japanese bulrush
3 | COCCOCOc1c(C)nn(C)c(=O)c1-c1c(-c2ccc(OCCSC)cc2)sc2ccccc12 [1-221] | 3 (Herbicidal rate of 40% or more and less than 70%)
4 | CCCC(=O)Oc1c(C)nn(C)c(=O)c1-c1c(-c2ccc(COC)cc2)sc2ccc(F)cc12 [2-023] | 0 (Herbicidal rate of 5% or less (almost no effect))

test system: oval-leafed pondweed; experiment: Test Example 2: herbicidal activity, application during weed generation under submerged conditions (Table 17, symbol C); assay type: in vivo, oval-leafed pondweed (Monochoria vaginalis); conditions: AAH 320 g/ha; application during weed generation, submerged conditions
Method in brief: as §1

Row | Compound | herbicidal effect rating, C: oval-leafed pondweed
5 | COCCOCOc1c(C)nn(C)c(=O)c1-c1c(-c2ccc(OCCSC)cc2)sc2ccccc12 [1-221] | 3 (Herbicidal rate of 40% or more and less than 70%)
6 | CCCC(=O)Oc1c(C)nn(C)c(=O)c1-c1c(-c2ccc(COC)cc2)sc2ccc(F)cc12 [2-023] | 0 (Herbicidal rate of 5% or less (almost no effect))

test system: southern crabgrass; experiment: Test Example 4: herbicidal effect by soil treatment (Table 19, symbol F); assay type: in vivo, southern crabgrass (Digitaria ciliaris); conditions: 320 g/ha
Method in brief: (§2)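 Step 1: sow seeds in sterilized diluvial soil, cover ~1.5 cm. Step 2: spray diluted emulsion onto soil surface at predetermined rate. Step 3: greenhouse, 25–30° C, three weeks. Step 4: grade effect on each plant by earlier criteria.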

Row | Compound | herbicidal effect rating, F: southern crabgrass
7 | CCCC(=O)Oc1c(C)nn(C)c(=O)c1-c1c(-c2ccc(COC)cc2)sc2ccc(F)cc12 [2-023] | 4 (Herbicidal rate of 70% or more and less than 90%)

same assay, conditions: AAH 320 g/ha

Row | Compound | F: southern crabgrass, herbicidal effect rating
8 | COCCOCOc1c(C)nn(C)c(=O)c1-c1c(-c2ccc(OCCSC)cc2)sc2ccccc12 [1-221] | 2 (Herbicidal rate of 20% or more and less than 40%)

test system: green foxtail; experiment: Test Example 4: herbicidal effect by soil treatment (Table 19, symbol G); assay type: in vivo, green foxtail (Setaria viridis); conditions: 320 g/ha
Method in brief: as §2

Row | Compound | herbicidal effect rating, G: green foxtail
9 | CCCC(=O)Oc1c(C)nn(C)c(=O)c1-c1c(-c2ccc(COC)cc2)sc2ccc(F)cc12 [2-023] | 5 (Herbicidal rate of 90% or more (almost completely withered))

same assay, conditions: AAH 320 g/ha

Row | Compound | G: green foxtail, herbicidal effect rating
10 | COCCOCOc1c(C)nn(C)c(=O)c1-c1c(-c2ccc(OCCSC)cc2)sc2ccccc12 [1-221] | 5 (Herbicidal rate of 90% or more (almost completely withered))

test system: barnyard grass; experiment: Test Example 4: herbicidal effect by soil treatment (Table 19, symbol H); assay type: in vivo, barnyard grass (Echinochloa crus-galli); conditions: 320 g/ha
Method in brief: as §2

Row | Compound | herbicidal effect rating, H: barnyard grass
11 | CCCC(=O)Oc1c(C)nn(C)c(=O)c1-c1c(-c2ccc(COC)cc2)sc2ccc(F)cc12 [2-023] | 4 (Herbicidal rate of 70% or more and less than 90%)

same assay, conditions: AAH 320 g/ha

Row | Compound | H: barnyard grass, herbicidal effect rating
12 | COCCOCOc1c(C)nn(C)c(=O)c1-c1c(-c2ccc(OCCSC)cc2)sc2ccccc12 [1-221] | 3 (Herbicidal rate of 40% or more and less than 70%)

test system: wild oat; experiment: Test Example 4: herbicidal effect by soil treatment (Table 19, symbol I); assay type: in vivo, wild oat (Avena fatua); conditions: 320 g/ha
Method in brief: as §2

Row | Compound | herbicidal effect rating, I: wild oat
13 | CCCC(=O)Oc1c(C)nn(C)c(=O)c1-c1c(-c2ccc(COC)cc2)sc2ccc(F)cc12 [2-023] | 0 (Herbicidal rate of 5% or less (almost no effect))

same assay, conditions: AAH 320 g/ha

Row | Compound | I: wild oat, herbicidal effect rating
14 | COCCOCOc1c(C)nn(C)c(=O)c1-c1c(-c2ccc(OCCSC)cc2)sc2ccccc12 [1-221] | 0 (Herbicidal rate of 5% or less (almost no effect))

test system: blackgrass; experiment: Test Example 4: herbicidal effect by soil treatment (Table 19, symbol J); assay type: in vivo, blackgrass (Alopecurus myosuroides); conditions: 320 g/ha
Method in brief: as §2

Row | Compound | herbicidal effect rating, J: blackgrass
15 | CCCC(=O)Oc1c(C)nn(C)c(=O)c1-c1c(-c2ccc(COC)cc2)sc2ccc(F)cc12 [2-023] | 3 (Herbicidal rate of 40% or more and less than 70%)

same assay, conditions: AAH 320 g/ha

Row | Compound | J: blackgrass, herbicidal effect rating
16 | COCCOCOc1c(C)nn(C)c(=O)c1-c1c(-c2ccc(OCCSC)cc2)sc2ccccc12 [1-221] | 0 (Herbicidal rate of 5% or less (almost no effect))

test system: velvetleaf; experiment: Test Example 4: herbicidal effect by soil treatment (Table 19, symbol M); assay type: in vivo, velvetleaf (Abutilon theophrasti); conditions: 320 g/ha
Method in brief: as §2

Row | Compound | herbicidal effect rating, M: velvetleaf
17 | CCCC(=O)Oc1c(C)nn(C)c(=O)c1-c1c(-c2ccc(COC)cc2)sc2ccc(F)cc12 [2-023] | 2 (Herbicidal rate of 20% or more and less than 40%)

same assay, conditions: AAH 320 g/ha

Row | Compound | M: velvetleaf, herbicidal effect rating
18 | COCCOCOc1c(C)nn(C)c(=O)c1-c1c(-c2ccc(OCCSC)cc2)sc2ccccc12 [1-221] | 2 (Herbicidal rate of 20% or more and less than 40%)

test system: redroot pigweed; experiment: Test Example 4: herbicidal effect by soil treatment (Table 19, symbol N); assay type: in vivo, redroot pigweed (Amaranthus retroflexus); conditions: 320 g/ha
Method in brief: as §2

Row | Compound | herbicidal effect rating, N: redroot pigweed
19 | CCCC(=O)Oc1c(C)nn(C)c(=O)c1-c1c(-c2ccc(COC)cc2)sc2ccc(F)cc12 [2-023] | 5 (Herbicidal rate of 90% or more (almost completely withered))

same assay, conditions: AAH 320 g/ha

Row | Compound | N: redroot pigweed, herbicidal effect rating
20 | COCCOCOc1c(C)nn(C)c(=O)c1-c1c(-c2ccc(OCCSC)cc2)sc2ccccc12 [1-221] | 5 (Herbicidal rate of 90% or more (almost completely withered))

test system: persian speedwell; experiment: Test Example 4: herbicidal effect by soil treatment (Table 19, symbol R); assay type: in vivo, Persian speedwell (Veronica persica); conditions: 320 g/ha
Method in brief: as §2

Row | Compound | herbicidal effect rating, R: persian speedwell
21 | CCCC(=O)Oc1c(C)nn(C)c(=O)c1-c1c(-c2ccc(COC)cc2)sc2ccc(F)cc12 [2-023] | 5 (Herbicidal rate of 90% or more (almost completely withered))

same assay, conditions: AAH 320 g/ha

Row | Compound | R: persian speedwell, herbicidal effect rating
22 | COCCOCOc1c(C)nn(C)c(=O)c1-c1c(-c2ccc(OCCSC)cc2)sc2ccccc12 [1-221] | 5 (Herbicidal rate of 90% or more (almost completely withered))

test system: barnyard grass; experiment: Test Example 5: herbicidal effect by foliage application, plastic box (Table 20, symbol H); assay type: in vivo, barnyard grass (Echinochloa crus-galli); conditions: foliage application, 320 g/ha, 3 weeks after application
Method in brief: (§3)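 Foliar spray test: emulsion formulation diluted in water to a set application rate, sprayed onto 14-day-old plants raised in diluvial soil at 25° C to 30° C under glass. Both herbicidal effect and crop effect rated visually three weeks later.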

Row | Compound | effect on barnyard grass (H)
23 | COCCOCOc1c(C)nn(C)c(=O)c1-c1c(-c2ccc(OCCSC)cc2)sc2ccccc12 [1-221] | 5 (Herbicidal rate of 90% or more (almost completely withered))
24 | CCCC(=O)Oc1c(C)nn(C)c(=O)c1-c1c(-c2ccc(COC)cc2)sc2ccc(F)cc12 [2-023] | 5 (Herbicidal rate of 90% or more (almost completely withered))

test system: windgrass; experiment: Test Example 5: herbicidal effect by foliage application, plastic box (Table 20, symbol L); assay type: in vivo, windgrass (Apera spica-venti); conditions: foliage application, 320 g/ha, 3 weeks after application
Method in brief: as §3

Row | Compound | effect on windgrass (L)
25 | COCCOCOc1c(C)nn(C)c(=O)c1-c1c(-c2ccc(OCCSC)cc2)sc2ccccc12 [1-221] | 5 (Herbicidal rate of 90% or more (almost completely withered))
26 | CCCC(=O)Oc1c(C)nn(C)c(=O)c1-c1c(-c2ccc(COC)cc2)sc2ccc(F)cc12 [2-023] | 4 (Herbicidal rate of 70% or more and less than 90%)

test system: persian speedwell; experiment: Test Example 5: herbicidal effect by foliage application, plastic box (Table 20, symbol R); assay type: in vivo, Persian speedwell (Veronica persica); conditions: foliage application, 320 g/ha, 3 weeks after application
Method in brief: as §3

Row | Compound | effect on persian speedwell (R)
27 | COCCOCOc1c(C)nn(C)c(=O)c1-c1c(-c2ccc(OCCSC)cc2)sc2ccccc12 [1-221] | 5 (Herbicidal rate of 90% or more (almost completely withered))
28 | CCCC(=O)Oc1c(C)nn(C)c(=O)c1-c1c(-c2ccc(COC)cc2)sc2ccc(F)cc12 [2-023] | 5 (Herbicidal rate of 90% or more (almost completely withered))
